Laboratory results reported in patent US20180360953A1 (priority 2015, published 2018).
Entries after “also recorded” stand apart in the source; their conditions may differ. Where two headings read alike, the source gives them in different places.

Legend:
[1] = tested on: Spleen cells of naïve C57BL/6 mice; type: cell-based
[2] = tested on: spleen cells; type: cell-based, mice; settings: spleen cells 24 hrs; Roflumilast 6.5 μM, Sivelestat 46 μM, Sulfasalazine 100 uM, Aspirin 100 μM
Method: In this example, the signaling induced by neutrophil inhibitors were examined to provide insight into mechanisms used to promote immunoglobulin class switching and production of IgG and/or IgA antibodies. In these experiments, the spleen cells of nice mice were cultured 24 hrs without or with neutrophil inhibitor (roflumilast (Phosphodiesterase-4 inhibitor), sivelestat (Neutrophil elastase inhibitor), sulfasalazine (Neutrophil NET inhibitor), or aspirin (COX inhibitor)). Gene expression was analyzed by qRT-PCR for BAFF, AID, TGFb, and IL-10. Mice were divided into 5 groups: (1) Control (Media) (2) Roflumilast (6.5 μM) (3) Sivelestat (46 μM) (4) Sulfasalazine (100 uM) and (5) Aspirin (100 μM).

[3] = tested on: spleen cells; type: cell-based, mice; settings: 100 μM
[4] = tested on: spleen cells; type: cell-based, mice
[5] = tested on: neutrophils and mast cells; settings: cited from earlier work
[6] = tested on: F1-V-specific Ab responses; design: species or system mice; settings: mouse, in vivo
[7] = tested on: PA-specific Ab responses; design: species or system mice; settings: mouse, in vivo
[8] = tested on: spleen cells; type: cell-based, mice; settings: 5 days; for IgG and IgA secreted in culture supernatants of spleen cells / IgM secreted in culture supernatants of spleen cells: increasing doses
Method: (§1) Single cell suspensions of spleen cells, mesenteric lymph nodes were resuspended (2×10^6 cells/ml) in RPMI 1640 supplemented with L-glutamine, HEPES, penicillin, streptomycin and 10% heat-inactivated fetal calf serum. Cells were cultured for 1, 5, or 6 days at 37° C. and 5% CO2 in the presence of various doses of the neutrophil elastase inhibitor Sivelestat (ONO-5046, C20H22N2O7S) or Alvelestat (AZD9668, C25H22F3N5O4S) (Selleckchem, Houston, Tex.). In selected experiments, neutrophil elastase inhibitors were added to cells cultured in the presence of Salmonella typhimurium LPS (0.05 μg/ml, Sigma, Saint Louis, Mo.).
(§2) […] described by ELISA, using goat anti-murine IgM, IgG, and IgA antibodies (Southern Biotech, Birmingham, Ala.) and extrapolation against standards.

[9] = tested on: spleen cells; type: cell-based, mice; settings: 24 hrs, 48 μM
[10] = tested on: mesenteric lymph node cells; type: cell-based, mice; settings: 5-days culture
Method: as §1, §2

[11] = tested on: spleen cells; type: cell-based, mice; remark: listed apart in the source
[12] = tested on: OVA-specific Ab responses; design: species or system mice; settings: mouse, in vivo
[13] = tested on: PA-specific Ab responses; design: species or system mice; settings: mouse, in vivo; remark: listed apart in the source
[14] = tested on: Bacillus anthracis lethal toxin (LeTx); type: in vivo, mice; settings: Day 21
[15] = tested on: CD4+ T helper cells; design: species or system mice; settings: mouse, in vivo
[16] = tested on: OVA-specific Ab responses; design: species or system mice; settings: mouse, in vivo, ip
[17] = tested on: mucosal homing receptors CCR9 and a4b7; design: species or system mice; settings: mouse, ip
[18] = tested on: mucosal homing receptors CCR9 and a4b7; type: cell-based; settings: spleen and mesenteric lymph node cells of naïve mice, 48 hours, Alvelestat 50 or 200 mM
Method: Spleen (A) and mesenteric lymph node (B) cells of naïve mice were cultures for 48 hours in the absence or in the presence of the NEI Alvelestat ([…]). The expression of mucosal homing receptors CCR9 and a4b7 by B lymphocytes, and T lymphocytes was analyzed by flow cytometry.

Compound: CC(=O)Oc1ccccc1C(=O)O [Acetyl-salicylic acid (ASA), acetylsalicylic acid]
- Relative stimulation of IgA secretion [1]: ++
- Dose effect (Relative stimulation of IgA) ([1]; 10 uM): uM (++)
- Dose effect (Relative stimulation of IgA) ([1]; 100 uM): uM (++)
- Dose effect (Relative stimulation of IgA) ([1]; 500 uM): uM (+)
- genes involved in immunoglobulin class switching (BAFF, AID, TGFb, and IL-10) [2]: differentially regulate
- IgA secretion by spleen cells (frequency of IgA secreting cells, ELISPOT) [3]: enhanced
- IgG and IgA production (immunofluorescence on cytospins) [4]: enhanced

Compound: O=C(O)c1cc(/N=N/c2ccc(S(=O)(=O)Nc3ccccn3)cc2)ccc1O [Sulfasalazine, sulfasalazine]
- Relative stimulation of IgA secretion [1]: +++
- Dose effect (Relative stimulation of IgA) ([1]; 10 uM): uM (++)
- Dose effect (Relative stimulation of IgA) ([1]; 100 uM): uM (+++)
- Dose effect (Relative stimulation of IgA) ([1]; 1000 uM): uM (+)
- genes involved in immunoglobulin class switching (BAFF, AID, TGFb, and IL-10) [2]: differentially regulate
- IgA secretion by spleen cells (frequency of IgA secreting cells, ELISPOT) [3]: enhanced
- ET formation in neutrophils and mast cells [5]: significantly inhibit

Compound: O=C(Nc1c(Cl)cncc1Cl)c1ccc(OC(F)F)c(OCC2CC2)c1 [Roflumilast]
- Relative stimulation of IgA secretion [1]: +
- Dose effect (Relative stimulation of IgA) ([1]; 0.062 uM): uM (−)
- Dose effect (Relative stimulation of IgA) ([1]; 0.62 uM): uM (−)
- Dose effect (Relative stimulation of IgA) ([1]; 6.2 uM): uM (+)
- genes involved in immunoglobulin class switching (BAFF, AID, TGFb, and IL-10) [2]: differentially regulate

Compound: O=C1CCC(N2C(=O)c3ccccc3C2=O)C(=O)N1 (stereo not drawn) [thalidomide]
- ET formation in neutrophils and mast cells [5]: significantly inhibit

Compound: CC(C)(C)C(=O)Oc1ccc(S(=O)(=O)Nc2ccccc2C(=O)NCC(=O)O)cc1 [Sivelestat, sivelestat]
- Relative stimulation of IgA secretion [1]: ++
- Dose effect (Relative stimulation of IgA) ([1]; 4.6 uM): uM (+)
- Dose effect (Relative stimulation of IgA) ([1]; 46 uM): uM (++)
- Dose effect (Relative stimulation of IgA) ([1]; 230 uM): uM (++)
- IgA responses by a sublingual vaccine [6]: promotes
- PA-specific salivary IgA response [7]: enhances
- PA-specific serum IgA response [7]: enhances
- PA-specific serum IgG1 response [7]: enhances
- PA-specific serum IgG2c response [7]: did not affect
- genes involved in immunoglobulin class switching (BAFF, AID, TGFb, and IL-10) [2]: differentially regulate
- IgA secretion by spleen cells (frequency of IgA secreting cells, ELISPOT) [3]: enhanced
- IgG and IgA production (immunofluorescence on cytospins) [4]: larger increases
- secretion of IgG and IgA by splenocytes cultured in the presence of LPS ([8]; LPS 0.05 μg/ml): increased
- IgG and IgA secreted in culture supernatants of spleen cells [8]: dose-dependent increase
- IgM secreted in culture supernatants of spleen cells [8]: reduced
- AID mRNA synthesis [9]: stimulated

Compound: Cc1c(-c2ccnn2C)cc(C(=O)NCc2ccc(S(C)(=O)=O)cn2)c(=O)n1-c1cccc(C(F)(F)F)c1 [Alvelestat, alvelestat]
- IgG and IgA in culture supernatants of mesenteric lymph node cells [10]: higher levels
- IgA production by spleen cells cultured in the presence of LPS ([8]; LPS 0.05 μg/ml): significant increase
- IgG and IgA secreted in culture supernatants of spleen cells [8]: increased
- IgM secreted in culture supernatants of spleen cells [8]: reduced
- frequency of CD4+ T cells [11]: increased
- AID mRNA synthesis [9]: stimulated
- OVA-specific serum IgE response [12]: no IgE response was detected
- OVA-specific serum IgE responses induced by EdTx [12]: significantly reduced; also recorded: suppresses
- OVA-specific serum IgG1 responses in the absence of EdTx [12]: increased
- OVA-specific serum IgG1 responses induced by EdTx [12]: increased the magnitude; also recorded: enhances
- OVA-specific serum IgG2a/c, or IgG3 in the absence of EdTx [12]: no evidence that the NEI enhanced
- OVA-specific serum IgG2b responses induced by EdTx as adjuvant [12]: significantly increased; also recorded: enhances
- antigen-specific IgA in gut (fecal extracts) [12]: did not stimulate
- antigen-specific IgA responses in vaginal washes [12]: only non-significant levels
- fecal IgA responses [12]: resulted in induction of fecal IgA responses
- vaginal IgG responses induced by EdTx as adjuvant [12]: enhance
- High affinity PA-specific IgG1 and IgA Ab responses [13]: high affinity antibodies; also recorded: promotes high affinity Abs
- titers of PA-specific IgG1 and IgA responses [13]: enhanced
- serum anti-PA neutralizing antibody titers ([14]; sublingual EdTx and NEI, listed as NEI): significantly increased; also recorded: enhanced neutralizing activity
- serum anti-PA neutralizing antibodies ([14]; sublingual antigen plus NEI): low and comparable levels
- all CD4+ T helper cytokine responses, including Th1, Th2, Th17 and Tfh [15]: significantly increased
- frequencies of IL-4+ CD4+ cells [15]: lower frequencies
- frequencies of IL-10+ CD4+ T cells and IL-17+ CD4+ T cells [15]: higher frequencies
- frequencies of Th1 cells (IFNγ+ CD4+ T cells and TNFα+ CD4+ T cells) [15]: same frequencies
- frequencies of Th2 cells producing IL-5 [15]: similar
- frequencies of antigen-specific IL-21+ CD4 T cells [15]: same frequencies
- kinetic and magnitude of OVA-specific serum IgG [16]: enhances
- mucosal IgA responses in the gut (OVA-specific, fecal extracts) [16]: promotes
- expression of gut homing receptors (CCR9 and a4b7) by B and T cells in vivo [17]: promotes expression
- expression of gut homing receptors (CCR9 and a4b7) by B and T cells in vitro [18]: promotes expression
